{"source": "paper PMC12440824", "about": "“Chimeric deubiquitinase engineering reveals structural basis for specific inhibition of the mitophagy regulator USP30” (Nature Structural & Molecular Biology, 2025)", "key": {"[1]": {"target": "USP30^ch1 (Homo sapiens, UniProt Q70CQ3)", "sequence (Q70CQ3 64-502)": "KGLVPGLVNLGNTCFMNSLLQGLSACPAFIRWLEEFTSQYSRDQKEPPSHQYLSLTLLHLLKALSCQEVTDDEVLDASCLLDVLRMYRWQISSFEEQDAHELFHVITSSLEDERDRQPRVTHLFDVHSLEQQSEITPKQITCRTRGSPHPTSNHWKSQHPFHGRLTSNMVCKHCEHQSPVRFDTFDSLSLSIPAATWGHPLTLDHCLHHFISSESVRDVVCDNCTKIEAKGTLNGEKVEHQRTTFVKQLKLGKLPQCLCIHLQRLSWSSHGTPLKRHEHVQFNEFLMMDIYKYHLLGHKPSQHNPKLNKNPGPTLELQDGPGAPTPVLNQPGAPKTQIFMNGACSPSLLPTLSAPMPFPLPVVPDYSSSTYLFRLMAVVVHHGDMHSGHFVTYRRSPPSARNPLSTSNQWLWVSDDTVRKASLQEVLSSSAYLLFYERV", "sequence (Q93009 325-395 partner)": "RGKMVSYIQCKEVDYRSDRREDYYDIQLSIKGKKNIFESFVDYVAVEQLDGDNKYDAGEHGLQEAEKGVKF", "test": "Ub–RhoG cleavage enzyme inhibition assay, chimera 1", "assay_type": "biochemical", "set-up": "scale not given here", "settings": "mean n=3", "description": "(§1) Enzyme kinetics were performed in black, low-volume, non-binding-surface 384-well plates. […] Next, 10 µl of 2× enzyme solution was added in triplicate to the plate. The reaction was started by adding 10 µl of 2× substrate solution. […] Inhibitor solution (4×) was added to 4× enzyme solution to create a 2× enzyme–inhibitor mixture. Next, 10 µl of this 2× enzyme–inhibitor mixture was then added to the plate in triplicate, and the plate was incubated at room temperature for 90 min. The reaction was started by adding 10 µl of 2× Ub–RhoG substrate. […] Data were analyzed with GraphPad Prism."}, "[2]": {"target": "USP30^ch3 I154A (Homo sapiens, UniProt Q70CQ3, I154A, form not given)", "sequence (Q70CQ3 64-502 I154A, form open)": "as the sequence (Q70CQ3 64-502) above, with I91A counted along it", "sequence (P54578 248-318 partner, form open)": "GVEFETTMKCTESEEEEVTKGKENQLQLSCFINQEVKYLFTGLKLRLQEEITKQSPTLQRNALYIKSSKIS", "sequence (Q9P2H5 821-846 partner, form open)": "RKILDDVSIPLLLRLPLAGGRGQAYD", "test": "Ub–RhoG cleavage enzyme inhibition assay, chimera 3 I154A", "assay_type": "biochemical", "settings": "mean n=3", "description": "as §1"}, "[3]": {"test_system": "USP30", "settings": "read-out: Cellular ABPP IC50 / cellular target engagement, cited from earlier work"}}, "note": "Read-outs that look alike come from different tables or passages of the source."}
{"smiles": "CC(C)(C)NS(=O)(=O)c1ccc(NC(=O)[C@H](Cc2ccccc2)NC(=O)c2ccc(F)cc2)cc1", "note": "[compound 39]", "values": [{"measurement": "USP30ch1 activity", "setting": "[1]; inhibitor 0.0015625 nM", "result": 0.9737}, {"measurement": "USP30ch1 activity", "setting": "[1]; inhibitor 0.00625 nM", "result": 0.9837}, {"measurement": "USP30ch1 activity", "setting": "[1]; inhibitor 0.025 nM", "result": 0.8913}, {"measurement": "USP30ch1 activity", "setting": "[1]; inhibitor 0.1 nM", "result": 0.7529}, {"measurement": "USP30ch1 activity", "setting": "[1]; inhibitor 0.39 nM", "result": 0.5726}, {"measurement": "USP30ch1 activity", "setting": "[1]; inhibitor 1.56 nM", "result": 0.3796}, {"measurement": "USP30ch1 activity", "setting": "[1]; inhibitor 6.25 nM", "result": 0.2212}, {"measurement": "USP30ch1 activity", "setting": "[1]; inhibitor 25 nM", "result": 0.1115}, {"measurement": "USP30ch1 activity", "setting": "[1]; inhibitor 100 nM", "result": 0.04824}, {"measurement": "USP30ch1 activity", "setting": "[1]; inhibitor 400 nM", "result": 0.02114}, {"measurement": "USP30ch1 activity", "setting": "[1]; inhibitor 1600 nM", "result": 0.0058}, {"measurement": "USP30ch3 I154A activity", "setting": "[2]; inhibitor 0.001563 nM", "result": 1.024}, {"measurement": "USP30ch3 I154A activity", "setting": "[2]; inhibitor 0.00625 nM", "result": 1.056}, {"measurement": "USP30ch3 I154A activity", "setting": "[2]; inhibitor 0.025 nM", "result": 0.9999}, {"measurement": "USP30ch3 I154A activity", "setting": "[2]; inhibitor 0.1 nM", "result": 1.007}, {"measurement": "USP30ch3 I154A activity", "setting": "[2]; inhibitor 0.39 nM", "result": 0.9637}, {"measurement": "USP30ch3 I154A activity", "setting": "[2]; inhibitor 1.56 nM", "result": 0.9166}, {"measurement": "USP30ch3 I154A activity", "setting": "[2]; inhibitor 6.25 nM", "result": 0.8225}, {"measurement": "USP30ch3 I154A activity", "setting": "[2]; inhibitor 25 nM", "result": 0.6606}, {"measurement": "USP30ch3 I154A activity", "setting": "[2]; inhibitor 100 nM", "result": 0.4173}, {"measurement": "USP30ch3 I154A activity", "setting": "[2]; inhibitor 400 nM", "result": 0.274}, {"measurement": "USP30ch3 I154A activity", "setting": "[2]; inhibitor 1600 nM", "result": 0.2192}, {"measurement": "IC50", "setting": "[3]; listed as Compound 39", "result": "< 50", "unit": "nM"}, {"measurement": "IC50", "setting": "[3]", "result": "10 to 50", "unit": "nM"}]}
